Experimental data published in ChEMBL document CHEMBL3045645, “Organophosphorus derivatives containing isatin-3-hydrazones as chemotherapeutants against fungal pathogens of sugarcane” (2008).

Legend:
Assay type in all cases: functional
Conditions in all cases: 168 h, read-out: GI
Curvularia pallescens [1] = test: Antifungal activity against Cochliobolus pallescens assessed as mycelial growth inhibition at 1000 ppm at 28 +/-2 degC after 7 days by food poison technique
Fusarium oxysporum [2] = test: Antifungal activity against Fusarium oxysporum assessed as mycelial growth inhibition at 100 ppm at 28 +/-2 degC after 7 days by food poison technique
Colletotrichum falcatum [3] = test: Antifungal activity against Glomerella tucumanensis assessed as mycelial growth inhibition at 1000 ppm at 28 +/-2 degC after 7 days by food poison technique
Fusarium oxysporum [4] = test: Antifungal activity against Fusarium oxysporum assessed as mycelial growth inhibition at 10 ppm at 28 +/-2 degC after 7 days by food poison technique
Colletotrichum falcatum [5] = test: Antifungal activity against Glomerella tucumanensis assessed as mycelial growth inhibition at 10 ppm at 28 +/-2 degC after 7 days by food poison technique
Curvularia pallescens [6] = test: Antifungal activity against Cochliobolus pallescens assessed as mycelial growth inhibition at 10 ppm at 28 +/-2 degC after 7 days by food poison technique
Fusarium oxysporum [7] = test: Antifungal activity against Fusarium oxysporum assessed as mycelial growth inhibition at 1000 ppm at 28 +/-2 degC after 7 days by food poison technique
Colletotrichum falcatum [8] = test: Antifungal activity against Glomerella tucumanensis assessed as mycelial growth inhibition at 100 ppm at 28 +/-2 degC after 7 days by food poison technique
Curvularia pallescens [9] = test: Antifungal activity against Cochliobolus pallescens assessed as mycelial growth inhibition at 100 ppm at 28 +/-2 degC after 7 days by food poison technique

SMILES | inhibition of growth at 1000 ppm (Curvularia pallescens [1]) [%] | inhibition of growth at 100 ppm (Fusarium oxysporum [2]) [%] | inhibition of growth at 1000 ppm (Colletotrichum falcatum [3]) [%] | inhibition of growth at 10 ppm (Fusarium oxysporum [4]) [%] | inhibition of growth at 10 ppm (Colletotrichum falcatum [5]) [%] | inhibition of growth at 10 ppm (Curvularia pallescens [6]) [%] | inhibition of growth at 1000 ppm (Fusarium oxysporum [7]) [%] | inhibition of growth at 100 ppm (Colletotrichum falcatum [8]) [%] | inhibition of growth at 100 ppm (Curvularia pallescens [9]) [%]
CCOP(=O)(OCC)O/C(=N\N=C1/C(=O)Nc2ccccc21)c1ccccc1 | 59.8 | 50.4 | 60.8 | 41.2 | 40.3 | 40.4 | 61.8 | 49.4 | 49.2
CCOP(=O)(OCC)O/C(=N\N=C1/C(=O)Nc2ccccc21)c1ccc(Cl)cc1 | 71.2 | 67.8 | 69.6 | 54.2 | 56.8 | 51.6 | 72.6 | 64.2 | 62.4
CCOP(=O)(OCC)O/C(=N\N=C1/C(=O)Nc2ccccc21)c1ccc([N+](=O)[O-])cc1 | 51.8 | 39.6 | 54.2 | 29.4 | 30.2 | 26.8 | 56.2 | 40.1 | 38.6
CCOP(=S)(OCC)O/C(=N\N=C1/C(=O)Nc2ccccc21)c1ccccc1 | 73.5 | 69.2 | 70.8 | 55.2 | 58.2 | 55.7 | 74.2 | 65.1 | 65.8
CCOP(=S)(OCC)O/C(=N\N=C1/C(=O)Nc2ccccc21)c1ccc(Cl)cc1 | 85.8 | 78.2 | 88.6 | 68.6 | 60.5 | 61.6 | 85.8 | 72.4 | 71.6
CCOP(=S)(OCC)O/C(=N\N=C1/C(=O)Nc2ccccc21)c1ccc([N+](=O)[O-])cc1 | 57.2 | 47.2 | 58.2 | 40 | 39.8 | 36.2 | 58.2 | 46.2 | 45.6
CCOP(=O)(OCC)O/C(=N\N=C1/C(=O)Nc2ccccc21)c1ccc(OP(=O)(OCC)OCC)cc1 | 67.8 | 58 | 69.2 | 52.6 | 52.3 | 51.8 | 71.5 | 62.4 | 51.7
CCOP(=S)(OCC)O/C(=N\N=C1/C(=O)Nc2ccccc21)c1ccc(OP(=S)(OCC)OCC)cc1 | 81.4 | 68.2 | 87 | 57.1 | 58.2 | 56 | 82.4 | 68.2 | 66.2
CCOP(=O)(OCC)O/C(=N\N=C1/C(=O)Nc2ccccc21)c1ccccc1P(=O)(OCC)OCC | 65.6 | 56.2 | 68.8 | 49.8 | 51.5 | 47.7 | 66.5 | 59.9 | 56.7
CCOP(=S)(OCC)O/C(=N\N=C1/C(=O)Nc2ccccc21)c1ccccc1P(=S)(OCC)OCC | 80.5 | 66.5 | 86.6 | 55.2 | 57.6 | 54.2 | 82.8 | 67.2 | 64.2
CCOP(=O)(OCC)O/C(COc1ccccc1)=N\N=C1/C(=O)Nc2ccccc21 | 68.8 | 59.2 | 70.2 | 50 | 51.2 | 50.1 | 69.6 | 61.6 | 58.2
CCOP(=O)(OCC)O/C(COc1ccc(Cl)cc1)=N\N=C1/C(=O)Nc2ccccc21 | 82.6 | 74.2 | 80.2 | 61.8 | 64.8 | 60.9 | 85.6 | 71.6 | 71.8
CCOP(=O)(OCC)O/C(COc1ccc([N+](=O)[O-])cc1)=N\N=C1/C(=O)Nc2ccccc21 | 55.6 | 45.8 | 60.2 | 37.2 | 38.6 | 34 | 61.5 | 48.6 | 42.8
CCOP(=S)(OCC)O/C(COc1ccccc1)=N\N=C1/C(=O)Nc2ccccc21 | 74.2 | 69.1 | 75.2 | 54 | 56.2 | 52.6 | 76.8 | 67 | 62.7
CCOP(=S)(OCC)O/C(COc1ccc([N+](=O)[O-])cc1)=N\N=C1/C(=O)Nc2ccccc21 | 65.6 | 52.6 | 68.4 | 44.6 | 48.2 | 40.6 | 67.8 | 56.2 | 52.8
CCOP(=O)(OCC)O/C(COc1ccc(OP(=O)(OCC)OCC)cc1)=N\N=C1/C(=O)Nc2ccccc21 | 76.4 | 69.2 | 80.6 | 60.2 | 61.5 | 62.8 | 78.6 | 70.2 | 70
CCOP(=O)(OCC)O/C(COc1ccccc1P(=O)(OCC)OCC)=N\N=C1/C(=O)Nc2ccccc21 | 71.2 | 64 | 78.2 | 58.6 | 60.2 | 57.2 | 74.2 | 67.4 | 64.6
CCOP(=S)(OCC)O/C(COc1ccccc1P(=S)(OCC)OCC)=N\N=C1/C(=O)Nc2ccccc21 | 93.8 | 80 | 95.6 | 71.6 | 72.5 | 72.8 | 92.8 | 81.2 | 79.9
